Source: patent publication US12329799B2, “Peptidyl inhibitors of calcineurin-NFAT interaction” (Ohio State Innovation Foundation, priority 2018, dated 2025)
Positions of bridges follow the written chain, without caps; N, C: chain ends. Non-standard residues stand in square brackets, D forms with d. Residues, ends and D or L forms follow the SMILES beside them. Chains are numbered I, II in the order given. *: point of attachment. Benzoyl(2,3-Cl2) = O=C(c1cccc(Cl)c1Cl)*; 2Nal = N[C@@H](Cc1ccc2ccccc2c1)C(=O)O; Tle = CC(C)(C)[C@H](N)C(=O)O; AEEA = NCCOCCOCC(=O)O

Legend:
Calcineurin (GST-CN) = target: T1, Calcineurin (GST-CN) (Homo sapiens, UniProt Q08209); assay: FA-based competition with FITC-labeled peptide 14 for binding to CN; details: unlabeled; inhibition of binding of peptide 14 to CN
T1 construct: made in house; host or cells: E. coli BL21
T1 sequence (Q08209 2-347 limits assumed): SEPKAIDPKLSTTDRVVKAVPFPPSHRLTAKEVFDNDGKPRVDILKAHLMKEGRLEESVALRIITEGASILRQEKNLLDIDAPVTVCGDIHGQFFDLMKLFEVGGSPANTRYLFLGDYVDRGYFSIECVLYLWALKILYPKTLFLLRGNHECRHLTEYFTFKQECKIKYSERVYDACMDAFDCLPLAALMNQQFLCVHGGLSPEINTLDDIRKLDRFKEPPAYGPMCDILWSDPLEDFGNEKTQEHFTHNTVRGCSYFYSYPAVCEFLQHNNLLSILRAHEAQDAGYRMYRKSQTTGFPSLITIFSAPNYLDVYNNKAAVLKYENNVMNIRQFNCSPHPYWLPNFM
Method: Serial dilutions of competitor peptides were prepared in PBS with 0.01% Trition-X100 and then added to the incubation solution and equilibrated at RT with gentle mixing for 1 h. Samples were pipetted into 384-well black microplates and FP signal was measured using a TECAN Infinite M1000 plate reader and analyzed using GraphPad PRISM v.6.

Serum stability assay = assay type: in vitro ADME; details: 25% human serum, 37° C., 24 h, read-out: degradation in human serum
Method: Serum Stability Assay. Diluted human serum (25%) (H4522 human serum, Sigma) was centrifuged at 15,000 rpm for 10 min, and the supernatant was collected. A peptide stock solution was diluted into the supernatant to a final concentration of 5 μM and incubated at 37° C. At various time points (0-24 h), 200-μL aliquots were withdrawn and mixed with 100 μL of 15% trichloroacetic acid and incubated at 4° C. overnight. The final mixture was centrifuged at 15,000 rpm for 10 min in a microcentrifuge, and the supernatant was analyzed by reversed-phase HPLC equipped with a C18 column. The amount of remaining peptide (%) was determined by integrating the area underneath the peptide peak (monitored at 214 nm) and comparing with that from the peptide at time 0.

HeLa cells [1] = assay: MTT assay, HeLa; assay type: cell-based; details: MTT, 72 h
Method: (§1) MTT Proliferation Assay. HeLa, Jurkat-Lucia, or H441 cells were seeded into a 96-well microplate (5000 cells per well) in full growth media and incubated at 37° C. overnight. A serial dilution of each compound was prepared in DPBS and then added to each well. The treated cells were incubated at 37° C. with 5% CO2 for 72 h. Following compound treatment, 10 μL of MTT stock solution was added to each well. After an additional 4 h at 37° C., 100 μL of SDS-HCl solubilizing solution was added to each well and the plate was returned to the incubator overnight at 37° C. A Tecan Infinite M1000 Pro microplate reader was used the following morning to measure the absorbance of the formazan product at 565 nm.
Potential cytotoxicity of CNI101 (SEQ ID NO: 206) and CNI103 (SEQ ID NO: 208) was tested on HeLa cells by the MTT proliferation assay. HeLa cells were seeded into a 96-well microplate (5000 cells per well) in full growth media and incubated at 37° C. overnight. A serial dilution of each inhibitor was prepared in DPBS and then added to each well. The treated cells were incubated at 37° C. with 5% CO2 for 72 h. Following compound treatment, 10 μL of MTT stock solution was added to each well. After an additional 4 h at 37° C., 100 μL of SDS-HCl solubilizing solution was added to each well and the plate was returned to the incubator overnight at 37° C. A Tecan Infinite M1000 Pro microplate reader was used the following morning to measure the absorbance of the formazan product at 565 nm.

Jurkat cells = assay: MTT assay, Jurkat; assay type: cell-based
Method: as §1

[2] = tested on: NFAT-mediated luciferase expression in Jurkat cells; assay: NFAT luciferase assay in Jurkat cells; assay type: cell-based; details: qualitative
Method: In a separate experiment, CNI93 was also tested against Jurkat cells expressing a luciferase gene under the transcriptional control of NFAT.
NFAT Luciferase Assay. Jurkat-Lucia cells maintained in RPMI-1640 supplemented with 10% FBS, 1% penicillin/streptomycin (v/v/v) and 100 μg/mL normocin were harvested after a passage with 50 μg/mL selective antibiotic Zeocin at 300×RCF for 5 min. Cells were resuspended in warm RPMI-1640 with antibiotics but without FBS to a final density of 2×10^6 cells/mL and seeded into white-on-white cell-culture treated 96-well plates. To each well was added 10 μL of DPBS containing compounds which dilute to the desired concentrations followed by 170 μL of cell suspension […] and incubated at 37° C. for 2 h. The cells were induced by treatment with 50 ng/mL PMA and 3 μg/mL ionomycin, Ca^2+ salt in FBS to achieve a final FBS concentration of 10% in each well (with FBS only as control). The plate was incubated for an additional 4 h at 37° C., when 20 μL of each sample was withdrawn and mixed with 50 μL of Quanti-Luc assay solution. The luminescence of the mixture was immediately measured on a Tecan Infinite M1000 plate reader.

in vitro = in vitro ADME; set-up: dose or concentration left out as unconfirmed; details: mouse, plasma; for fraction unbound at 5 h: pH 7.4
Method: (§2) Plasma binding was assessed using mouse plasma obtained from in-life studies. CNI103 was diluted to […] in pre-warmed mouse plasma. The solution was added to the left chamber of a commercial plate based RED (rapid equilibrium dialysis) device. Isotonic sodium phosphate buffer (100 mM sodium phosphate, 100 mM sodium chloride, pH 7.4) was added to the outer chamber of the RED device and the plate was incubated at 37° C. for five hours. Aliquots of the buffer and the plasma were withdrawn before and after the incubation and the concentrations of free and bound test compound were determined by LC/MS/MS analysis. To test for plasma stability, the dosing solution was also incubated at 37° C. for 5 hours and the concentration of CNI103 was determined by LC/MS/MS analysis as described above.
(§3) The calculation of percentage binding is calculated using the following equations and the results are presented in Table 13: Binding %=(Cpe−Cb)/Cpe×100 • Cpe=Conc. of test compound in plasma at equilibrium • Cb=Conc. of test compound in buffer at equilibrium % Stability of test compound=(Conc. of stability sample/Conc. of time zero sample)×100 % Recovery=(Cpe+Cb)/Conc. of stability sample×100

plasma protein = assay: in vitro; assay type: in vitro ADME; set-up: dose or concentration left out as unconfirmed; details: mouse, pH 7.4
Method: as §2, §3

[3] = Caco-2 permeability assay; assay type: in vitro ADME; details: human, Caco-2, pH 7.4
Method: (§4) Caco-2 permeability assay. To assay the permeability of test compounds by Caco-2 cell model, Caco-2 cells were cultured to confluency before being trypsinized and seeded onto filter transwell inserts at a density of 30,000 cells/well in DMEM medium. Cells were cultured in a humidified atmosphere with 5% CO2 at 37° C. After overnight attachment, cell medium was replaced with fresh medium at both apical and basolateral sides every other day. The cell monolayers are ready for the assay 20 days post seeding. […] The dosing solution at 10 μM was obtained by diluting 10 mM stock solution in HBSS medium (pH 7.4, 25 mM HEPES) freshly before the assay. Terfenadine (25 ng/mL) and Tolbutamide (50 ng/mL) were added into dosing solution as internal standards. […] The culture medium from either the basolateral side (plate B) or apical side (plate A) were aspirated and then rinsed with HBSS medium once. Afterwards, the dosing medium was added to either basolateral or apical side. Following the incubation, 100 microliter samples from both sides were harvested at time 0 and time 90 min. Samples were quenched with acetonitrile/methanol (1:1 v/v), centrifuged, and analyzed on a Shimadzu reversed-phase HPLC and Sciex API4500 Q trap instrument.
(§5) Permeability parameters were calculated using the following equations and shown in Table 10: Papp=(Conc.receiver,90 min*Volumereceiver)/(Time*Membrane Area*Conc.donor,0 min) Efflux Ratio=Papp[B to A]/Papp[A to B]

Caco-2 cell monolayers = assay: Caco-2 permeability assay; assay type: in vitro ADME
Method: as §4, §5

HeLa cells [4] = details: 100% = equal cargo concentration in cytosol and extracellular medium; cited from earlier work

Row | remaining at 5 h (in vitro) | fraction unbound at 5 h (in vitro) | recovery at 5 h (plasma protein) | Molecule | further results
1 |  |  |  | CC[C@H](C)[C@H](NC(=O)[C@@H](NC(=O)c1cccc(Cl)c1Cl)C(C)(C)C)C(=O)N[C@H](C(=O)N[C@H](C(=O)N[C@H](C(=O)N[C@@H](CCC(N)=O)C(=O)N[C@@H](Cc1c[nH]cn1)C(=O)N[C@H](CC(C)C)C(=O)N[C@@H](CO)C(=O)NCCOCCOCC(=O)N[C@@H](CCCCNC(=O)CC[C@@H]1NC(=O)[C@@H](CCCNC(=N)N)NC(=O)[C@H](CCCNC(=N)N)NC(=O)[C@@H](CCCNC(=N)N)NC(=O)[C@H](CCCNC(=N)N)NC(=O)[C@H](Cc2ccc3ccccc3c2)NC(=O)[C@@H](Cc2ccccc2)NC1=O)C(N)=O)[C@@H](C)O)[C@@H](C)CC)C(C)(C)C [CNI95] (I: {Benzoyl(2,3-Cl2)}-[Tle]I[Tle]ITQH[dL]S[AEEA]K-NH2 / II: cyclo([2Nal]R[dR]R[dR]E[dF]); amide I:11-II:6 (inferred); ring closure inferred) | higher potency than CNI93 in FA-based competition assay (Calcineurin (GST-CN)): ~5 fold; metabolised at 24 h, 5 μM (Serum stability assay): ~12%; concentrations decreasing cell viability (HeLa cells [1]): ≥ 25 µM; concentrations decreasing cell viability (Jurkat cells): ≥ 25 µM; attenuation of NFAT activity in Jurkat cells relative to CNI93 [2]: vastly superior
2 | 73.8% | 0.635 | 73.3% | CCOc1ccc(NC(C)=O)cc1 [Phenacetine] | 
3 |  |  |  | CC(C)NCC(O)COc1cccc2ccccc12 (stereo not drawn) [Propranolol, reference compound] | Papp B→A at 90 min, 10 μM ([3]; N = 2, 10 μM, 90 min): 26 ×10⁻⁶ cm/s; efflux ratio at 90 min, 10 μM ([3]; Papp[B to A]/Papp[A to B]): 0.7; Pgp Substrate (Caco-2 cell monolayers): No
4 | 107% | 0.243 | 102% | C=C[C@H]1C[N@@]2CC[C@H]1C[C@@H]2[C@@H](O)c1ccnc2ccc(OC)cc12 [Quinidine] | 
5 | 101% | 0.086 | 103% | CC(=O)CC(c1ccccc1)c1c(O)c2ccccc2oc1=O (stereo not drawn) [Warfarin] | 
6 |  |  |  | cyclic (fΦRrRrQ) (cyclo([dF][2Nal]R[dR]R[dR]Q); SMILES N=C(N)NCCC[C@@H]1NC(=O)[C@H](Cc2ccc3ccccc3c2)NC(=O)[C@@H](Cc2ccccc2)NC(=O)[C@H](CCC(N)=O)NC(=O)[C@@H](CCCNC(=N)N)NC(=O)[C@H](CCCNC(=N)N)NC(=O)[C@@H](CCCNC(=N)N)NC1=O) [CPP9] | absolute cytosolic delivery efficiency (HeLa cells [4]): 62%
